{
  "source": "paper PMC8639922",
  "about": "“KSHV transactivator-derived small peptide traps coactivators to attenuate MYC and inhibits leukemia and lymphoma cell growth” (Communications Biology, 2021)",
  "tested_on": "BC-1 cells",
  "assay": "MTT assay, deletion and mutant peptides",
  "format": "cell-based, human",
  "source_text": "Fig. 2 Viral and cellular responses to K-Rta peptide; identification of VGN50. a Protein sequence alignment. Homologous protein sequences were searched for with BLAST and extracted from other gamma-herpesviral homologs. The consensus protein sequence is depicted at the bottom of table. b Peptide design. Deletion peptides were designed based on the consensus sequence in a. The TAT protein sequence was used as a cell-penetrating peptide (CPP) and placed downstream from the K-Rta protein sequence. (d-R) D amino acid arginine, (ORN) ornithine, (bAla) beta alanine. c Sub cellular peptide localization. Cy5-labeled peptide 1 was used to track subcellular localization. Nuclei were visualized by DAPI staining. The scale is indicated in the panel. d MTT assays with deletion and mutant peptides. Peptide listed in b were incubated with BC-1 cells and MTT conversion was measured 48 h after incubation. The OD of mock-treated samples were set as 100%, and OD from detergent-treated cells were set as 0%. The amount of each peptide used for incubation is depicted along the x-axis. Mean percentage viability ±SD were calculated for each treatment group (n = 3 samples). Peptide 1 was renamed as VGN50. e Flow cytometry analyses of cell proliferation and apoptosis induction. Cells were incubated with VGN50 or mutant peptide (three alanine substitutions) for 24 h followed by measurements of percentage cell proliferation (Ki67 staining) and apoptosis induction (Annexin V staining). Standard deviation bars are included. (n = 3) Two-way Anova, followed by Sidak’s multiple comparisons test. f The effect of VGN50 on various cancer cell types. MTT assays were performed with the indicated cell lines treated with various VGN50 concentrations. The OD of mock-treated samples were set as 100%, and OD from detergent-treated cells were set as 0%. Mean percentage viability ±SD was calculated for each treatment (n = 3 samples/treatment). g Viability assay with flow cytometry. Cell viability was measured in triplicate with live/dead staining and the cell killing effects on cancer cells was compared with normal peripheral blood mononuclear cells (PBMC) from three healthy donors. Results are presented as mean percentage viability ±SD (n = 3 samples/group). f, g Ordinary one-way Anova, followed by Tukey’s multiple comparisons test. […]\nLeukoreduction system chambers (LRS) from healthy donors were purchased from Vitalant. […] Cell death, apoptosis, and proliferation were analyzed by flow cytometry (BD Acuri) after intracellular staining with anti-humanKi67-Alexa488 (Biolegend, 1:100) along with the isotype control antibody, annexin-V-FITC with 7-AAD staining (Biolegend) according to the manufacture’s protocol, Live/dead Fixable Red Dead Cell staining kit (Invitrogen) according to the manufacture’s protocol, or MTT assay. […]",
  "data": [
    {"smiles": "CC[C@H](C)[C@H](NC(=O)[C@H](CO)NC(=O)[C@H](CO)NC(=O)CCNC(=O)[C@H](CCCNC(=N)N)NC(=O)[C@H](CCCNC(=N)N)NC(=O)[C@H](CCCNC(=N)N)NC(=O)[C@H](CCCN)NC(=O)[C@H](CCCNC(=N)N)NC(=O)[C@H](CCCNC(=N)N)NC(=O)[C@H](CCCCN)NC(=O)[C@H](CCCCN)NC(=O)[C@H](N)CCCNC(=N)N)C(=O)N[C@@H](CC(C)C)C(=O)N[C@@H](CCC(N)=O)C(=O)NCC(=O)N[C@@H](CC(C)C)C(=O)N[C@@H](Cc1ccc(O)cc1)C(=O)N[C@@H](CCC(N)=O)C(=O)N[C@@H](CC(C)C)C(=O)N[C@@H](CC(=O)O)C(=O)N[C@H](C(=O)O)[C@@H](C)O", "note": "[Pep 2]", "values": [
      {"measurement": "Reduction of cell viability (MTT) compared to untreated control", "setting": "BC-1, 64 μM", "result": 20, "unit": "%"}
    ]},
    {"smiles": "CC[C@H](C)[C@H](NC(=O)[C@H](CO)NC(=O)[C@H](CO)NC(=O)[C@H](CC(C)C)NC(=O)[C@H](CC(C)C)NC(=O)[C@H](C)NC(=O)[C@H](CC(=O)O)NC(=O)CCNC(=O)[C@H](CCCNC(=N)N)NC(=O)[C@H](CCCNC(=N)N)NC(=O)[C@H](CCCNC(=N)N)NC(=O)[C@H](CCCN)NC(=O)[C@H](CCCNC(=N)N)NC(=O)[C@H](CCCNC(=N)N)NC(=O)[C@H](CCCCN)NC(=O)[C@H](CCCCN)NC(=O)[C@H](N)CCCNC(=N)N)C(=O)N[C@@H](CC(C)C)C(=O)N[C@@H](CCC(N)=O)C(=O)NCC(=O)N[C@@H](CC(C)C)C(=O)N[C@@H](Cc1ccc(O)cc1)C(=O)N[C@@H](CCC(N)=O)C(=O)N[C@@H](CC(C)C)C(=O)N[C@@H](CC(=O)O)C(=O)N[C@H](C(=O)O)[C@@H](C)O", "note": "[Pep 3]", "values": [
      {"measurement": "Reduction of cell viability (MTT) compared to untreated control", "setting": "BC-1, 16 µM", "result": 90, "unit": "%"}
    ]},
    {"smiles": "CC[C@H](C)[C@H](NC(=O)[C@H](CO)NC(=O)[C@H](CO)NC(=O)[C@H](CC(C)C)NC(=O)[C@H](CC(C)C)NC(=O)[C@H](C)NC(=O)[C@H](CC(=O)O)NC(=O)[C@H](CC(=O)O)NC(=O)CCNC(=O)[C@H](CCCNC(=N)N)NC(=O)[C@H](CCCNC(=N)N)NC(=O)[C@H](CCCNC(=N)N)NC(=O)[C@H](CCCN)NC(=O)[C@H](CCCNC(=N)N)NC(=O)[C@H](CCCNC(=N)N)NC(=O)[C@H](CCCCN)NC(=O)[C@H](CCCCN)NC(=O)[C@H](N)CCCNC(=N)N)C(=O)N[C@@H](CC(C)C)C(=O)N[C@@H](CCC(N)=O)C(=O)NCC(=O)N[C@@H](CC(C)C)C(=O)N[C@@H](Cc1ccc(O)cc1)C(=O)O", "note": "[Pep 4]", "values": [
      {"measurement": "Fold less effective compared to Pep 1 and 3 (MTT)", "setting": "BC-1", "result": "~ 4 fold"}
    ]}
  ]
}
